The source of these data is paper PMC10288273, “Allosteric Activation of Transglutaminase 2 via Inducing an “Open” Conformation for Osteoblast Differentiation” (Advanced Science, 2023).

The target of the assay is T1, TGM2 (in MC3T3-E1 cells) (Mus musculus, UniProt P21981).
T1 construct: native full-length protein in MC3T3-E1 pre-osteoblast cells
T1 sequence (P21981 2-686): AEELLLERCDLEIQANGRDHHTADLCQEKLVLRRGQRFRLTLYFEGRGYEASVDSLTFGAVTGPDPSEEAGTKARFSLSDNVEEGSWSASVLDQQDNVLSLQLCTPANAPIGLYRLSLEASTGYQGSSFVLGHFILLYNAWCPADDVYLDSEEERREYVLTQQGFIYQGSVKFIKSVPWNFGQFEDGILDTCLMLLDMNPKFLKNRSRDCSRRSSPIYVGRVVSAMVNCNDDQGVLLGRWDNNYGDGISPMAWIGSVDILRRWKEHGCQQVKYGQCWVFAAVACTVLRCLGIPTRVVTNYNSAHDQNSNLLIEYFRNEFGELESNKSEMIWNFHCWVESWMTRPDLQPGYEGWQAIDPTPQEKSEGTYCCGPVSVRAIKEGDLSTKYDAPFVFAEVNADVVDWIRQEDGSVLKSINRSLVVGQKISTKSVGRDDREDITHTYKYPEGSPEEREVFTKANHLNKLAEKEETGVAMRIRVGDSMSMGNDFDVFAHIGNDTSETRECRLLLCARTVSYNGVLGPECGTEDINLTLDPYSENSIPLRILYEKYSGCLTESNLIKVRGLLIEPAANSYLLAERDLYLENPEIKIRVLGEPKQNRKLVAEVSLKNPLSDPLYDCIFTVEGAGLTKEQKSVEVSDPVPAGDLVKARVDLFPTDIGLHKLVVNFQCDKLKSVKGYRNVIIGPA
Put plainly: CETSA; DARTS. It is filed as cell-based.

For the compound `C=C[C@@]1(C)CC(=O)[C@]2(O)[C@@]3(C)[C@@H](O)CCC(C)(C)[C@@H]3[C@H](O)[C@H](OC(C)=O)[C@@]2(C)O1` [Forskolin], the “thermal stabilisation (CETSA)” value was “FSK enhanced the thermal stability of TGM2”.
